According to the NIST ThermoML archive (doi:10.1021/je800972b):
± gives the expanded uncertainty stated by the source. Values belong to the compound of their own block, whether it stands above or below them.

Key:
[1] = 298.15 K; 101.33 kPa; Liquid
[2] = xn = mol fraction of the nth substance listed; details: 298.15 K, 101 kPa, Liquid, Vibrating tube method

mass density [1]: 800.61 ± 0.23 kg/m3
Compound: CCCO [propan-1-ol]

Compound: C=COCCC [propyl vinyl ether]
mass density [1]: 762.69 ± 0.26 kg/m3

Compound: C=COCCC [propyl vinyl ether] + Cc1ccccc1
mass density ([2]; x1 = 0.0494): 857.3 ± 0.22 kg/m3 | mass density ([2]; x1 = 0.1002): 852.46 ± 0.22 kg/m3 | mass density ([2]; x1 = 0.1995): 843.05 ± 0.22 kg/m3 | mass density ([2]; x1 = 0.2999): 833.4 ± 0.22 kg/m3 | mass density ([2]; x1 = 0.3993): 823.66 ± 0.22 kg/m3 | mass density ([2]; x1 = 0.5002): 813.73 ± 0.22 kg/m3 | mass density ([2]; x1 = 0.5999): 803.77 ± 0.22 kg/m3 | mass density ([2]; x1 = 0.6998): 793.65 ± 0.22 kg/m3 | mass density ([2]; x1 = 0.7999): 783.69 ± 0.22 kg/m3 | mass density ([2]; x1 = 0.8993): 773.56 ± 0.22 kg/m3 | mass density ([2]; x1 = 0.95): 768.31 ± 0.22 kg/m3

Compound: Cc1ccccc1 [toluene]
mass density [1]: 862.23 ± 0.18 kg/m3
